Assay results from US10647713B2 (Nimbus Lakshmi, Inc., priority 2016, dated 2020).

biological target: human TYK2 (JH2domain-pseudokinase) (Homo sapiens (Human), UniProt P29597); assay: TYK2 JH2 Domain Binding Assay (KINOMEscan, DiscoveRx); details: 11-point dilution, duplicate
Procedure, shortened: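 TYK2 JH2 (G556–D888)–NFkB DBD fusion, DNA-tagged, from HEK293 extracts (<0.1 nM) competed against immobilised biotinylated ligand for 1 h at room temperature, 0.9% DMSO. Bead-retained kinase quantified by qPCR; Kd from 11-point 3-fold series (top 30,000 nM, duplicate), Hill fit with slope −1.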

Sequence of human TYK2 (JH2domain-pseudokinase) (P29597 556-888): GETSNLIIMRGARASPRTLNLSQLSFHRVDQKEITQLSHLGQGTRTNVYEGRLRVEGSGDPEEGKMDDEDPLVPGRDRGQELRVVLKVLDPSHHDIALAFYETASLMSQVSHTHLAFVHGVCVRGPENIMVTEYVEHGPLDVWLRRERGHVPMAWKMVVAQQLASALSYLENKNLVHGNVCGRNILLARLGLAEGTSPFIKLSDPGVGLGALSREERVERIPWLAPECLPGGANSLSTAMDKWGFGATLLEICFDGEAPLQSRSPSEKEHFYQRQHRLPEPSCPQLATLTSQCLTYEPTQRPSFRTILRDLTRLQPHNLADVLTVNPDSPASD

Row | Kd [pM] | SMILES
1 | 500 to 1000 | CN(c1cc(-c2cnn(C)c2)ccc1Nc1cc(NC(=O)C2CC2(F)F)nc2[nH]c(C(F)F)nc12)S(C)(=O)=O (stereo not drawn) [I-385, N-(2-(difluoromethyl)-7-((4-(1-methyl-1H-pyrazol-4-yl)-2-(N-methylmethylsulfonamido)phenyl)amino)-3H-imidazo[4,5-b]pyridin-5-yl)-2,2-difluorocyclopropane-1-carboxamide]
2 | 500 to 1000 | CO[C@H](C)c1ccc(Nc2cc(NC(=O)C3CC3)nc3[nH]c(C(F)F)nc23)c(S(C)(=O)=O)c1 [I-454, (R)—N-(2-(difluoromethyl)-7-((4-(1-methoxyethyl)-2-(methylsulfonyl)phenyl)amino)-3H-imidazo[4,5-b]pyridin-5-yl)cyclopropanecarboxamide]
3 | 500 to 1000 | CP(C)(=O)c1ccccc1Nc1cc(NC(=O)C2CC2)nc2[nH]c(C(F)F)nc12 [I-242, N-(2-(difluoromethyl)-7-((2-(dimethylphosphoryl)phenyl)amino)-3H-imidazo[4,5-b]pyridin-5-yl)cyclopropanecarboxamide]
4 | 100 to 500 | COCc1ccc(Nc2cc(Nc3ccc(F)cc3S(C)(=O)=O)c3nc(C)[nH]c3n2)nn1 [I-636]
5 | 1000 to 10000 | Cc1cn(C)nc1-c1ccc(Nc2cc(NC(=O)[C@@H]3CC3(C)C)nc3[nH]c(C(F)F)nc23)c(S(C)(=O)=O)c1 [I-459, (R)—N-(2-(difluoromethyl)-7-((4-(1,4-dimethyl-1H-pyrazol-3-yl)-2-(methylsulfonyl)phenyl)amino)-3H-imidazo[4,5-b]pyridin-5-yl)-2,2-dimethylcyclopropane-1-carboxamide]
6 | 100 to 500 | COC(C)c1ccc(Nc2cc(NC(=O)C3CC3)nc3[nH]c(C)nc23)c(S(C)(=O)=O)c1 (stereo not drawn) [I-400, N-(7-((4-(1-methoxyethyl)-2-(methylsulfonyl)phenyl)amino)-2-methyl-3H-imidazo[4,5-b]pyridin-5-yl)cyclopropanecarboxamide]
7 | 500 to 1000 | COc1c(Nc2cc(Nc3cccc(C#N)n3)nc3[nH]c(C(F)F)nc23)cccc1-c1ncnn1C [I-538]
8 | > 10000 | Cc1nc2c(Nc3ccccc3P(C)(C)=O)cc(NC(=O)C3CC3)nc2[nH]1 [I-243, N-(7-((2-(dimethylphosphoryl)phenyl)amino)-2-methyl-3H-imidazo[4,5-b]pyridin-5-yl)cyclopropanecarboxamide]
9 | 100 to 500 | CC1(C)CCC(c2ccc(Nc3cc(NC(=O)C4CC4)nc4[nH]c(C(F)F)nc34)c(S(C)(=O)=O)c2)OC1 (stereo not drawn) [I-356]
10 | 1000 to 10000 | Cc1cc(C)c(-c2ccc(Nc3cc(NC(=O)C4CC4)nc4[nH]c(C(F)F)nc34)c(S(C)(=O)=O)c2)o1 [I-534]
11 | 100 to 500 | CP(C)(=O)c1cc(C2CCC2)ccc1Nc1cc(NC(=O)C2CC2)nc2[nH]c(C(F)F)nc12 [I-444, N-(7-((4-cyclobutyl-2-(dimethylphosphoryl)phenyl)amino)-2-(difluoromethyl)-3H-imidazo[4,5-b]pyridin-5-yl)cyclopropane carboxamide]
12 | > 10000 | COc1c(Nc2cc(NC(=O)C3CC3)nc3[nH]c(C(F)F)nc23)cccc1-c1cnn(C)c1 [I-34, N-(2-(difluoromethyl)-7-((2-methoxy-3-(1-methyl-1H-pyrazol-4-yl)phenyl)amino)-3H-imidazo[4,5-b]pyridin-5-yl)cyclopropanecarboxamide]
13 | 100 to 500 | CN=S(C)(=O)c1cc(-c2ccn(C)n2)ccc1Nc1cc(NC(=O)C2CC2)nc2[nH]c(C(F)F)nc12 (stereo not drawn) [I-632]
14 | 1000 to 10000 | COc1nc2c(Nc3cccc(-c4ncn(C)n4)c3OC)cc(NC(=O)C3CC3)nc2[nH]1 [I-11]
15 | 1000 to 10000 | Cc1cc(-c2ccc(Nc3cc(NC(=O)C4CC4)nc4[nH]c(C(F)F)nc34)c(S(C)(=O)=O)c2)oc1C [I-420, N-(2-(difluoromethyl)-7-((4-(4,5-dimethylfuran-2-yl)-2-(methylsulfonyl)phenyl)amino)-3H-imidazo[4,5-b]pyridin-5-yl)cyclopropanecarboxamide]
16 | 100 to 500 | Cc1nc2c(Nc3ccc(-c4ccn(C)n4)cc3S(C)(=O)=O)cc(NC(=O)[C@@H]3C[C@@H]3F)nc2[nH]1 [I-211, (1S,2S)-2-fluoro-N-(2-methyl-7-((4-(1-methyl-1H-pyrazol-3-yl)-2-(methylsulfonyl)phenyl)amino)-3H-imidazo[4,5-b]pyridin-5-yl)cyclopropane-1-carboxamide]
17 | < 100 | Cc1cn(C)nc1-c1ccc(Nc2cc(NC(=O)[C@@H]3C[C@@H]3F)nc3[nH]c(C(F)F)nc23)c(S(C)(=O)=O)c1 [I-406, (1 S,2S)—N-(2-(difluoromethyl)-7-((4-(1,4-dimethyl-1H-pyrazol-3-yl)-2-(methylsulfonyl)phenyl)amino)-3H-imidazo[4,5-b]pyridin-5-yl)-2-fluorocyclopropane-1-carboxamide]
18 | > 10000 | COc1c(Nc2cc(NC(=O)C3CC3)nc3[nH]c(C(F)F)nc23)cccc1-c1nc(C)nn1C [I-41, N-(2-(difluoromethyl)-7-((3-(1,3-dimethyl-1H-1,2,4-triazol-5-yl)-2-methoxyphenyl)amino)-3H-imidazo[4,5-b]pyridin-5-yl)cyclopropanecarboxamide]
19 | 100 to 500 | Cc1ncc(Nc2cc(Nc3ccc(C4CCCCO4)cc3S(C)(=O)=O)c3nc(C(F)F)[nH]c3n2)nc1C (stereo not drawn) [I-397, 2-(difluoromethyl)-N5-(5,6-dimethylpyrazin-2-yl)-N7-(2-(methylsulfonyl)-4-(tetrahydro-2H-pyran-2-yl)phenyl)-3H-imidazo[4,5-b]pyridine-5,7-diamine]
20 | 100 to 500 | Cc1nc2c(Nc3ccccc3S(C)(=O)=O)cc(Nc3cccc(C#N)n3)nc2[nH]1 [I-603, 6-((2-methyl-7-((2-(methylsulfonyl)phenyl)amino)-3H-imidazo[4,5-b]pyridin-5-yl)amino)picolinonitrile]
21 | 100 to 500 | Cc1ncc(Nc2cc(Nc3ccc(-c4cc(C)n(C)n4)cc3S(C)(=O)=O)c3nc(C(F)F)[nH]c3n2)nc1C [I-300, 2-(difluoromethyl)-N7-(4-(1,5-dimethyl-1H-pyrazol-3-yl)-2-(methylsulfonyl)phenyl)-N5-(5,6-dimethylpyrazin-2-yl)-3H-imidazo[4,5-b]pyridine-5,7-diamine]
22 | 1000 to 10000 | CN=[S@@](C)(=O)c1ccccc1Nc1cc(NC(=O)C2CC2)nc2[nH]c(C(F)F)nc12 [I-396]
23 | 1000 to 10000 | Cn1cnc(-c2ccc(Nc3cc(NC(=O)C4CC4(F)F)nc4[nH]c(C(F)F)nc34)c(S(C)(=O)=O)c2)c1 (stereo not drawn) [I-381, N-(2-(difluoromethyl)-7-((4-(1-methyl-1H-imidazol-4-yl)-2-(methylsulfonyl)phenyl)amino)-3H-imidazo[4,5-b]pyridin-5-yl)-2,2-difluorocyclopropane-1-carboxamide]

Row | SMILES | Kd [pM]
24 | Cc1ncc(Nc2cc(Nc3ccccc3N(C)S(C)(=O)=O)c3nc(C(F)F)[nH]c3n2)nc1C [I-59, N-(2-((2-(difluoromethyl)-5-((5,6-dimethylpyrazin-2-yl)amino)-3H-imidazo[4,5-b]pyridin-7-yl)amino)phenyl)-N-methylmethanesulfonamide] | 100 to 500
25 | Cc1nc2c(Nc3ccc([C@H]4CCC(C)(C)CO4)cc3S(C)(=O)=O)cc(NC(=O)C3CC3)nc2[nH]1 [I-551, (R)—N-(7-((4-(5,5-dimethyltetrahydro-2H-pyran-2-yl)-2-(methylsulfonyl)phenyl)amino)-2-methyl-3H-imidazo[4,5-b]pyridin-5-yl)cyclopropanecarboxamide] | 500 to 1000
26 | Cc1cc(Nc2cc(Nc3ccc(-c4nc(C)cs4)cc3S(C)(=O)=O)c3nc(C(F)F)[nH]c3n2)nc(C)n1 [I-467, 2-(difluoromethyl)-N5-(2,6-dimethylpyrimidin-4-yl)-N7-(2-(methylsulfonyl)-4-(4-methylthiazol-2-yl)phenyl)-3H-imidazo[4,5-b]pyridine-5,7-diamine] | 100 to 500
27 | Cc1cc(Nc2cc(Nc3ccccc3N(C)S(C)(=O)=O)c3nc(C)[nH]c3n2)nc(C)n1 [I-124, N-(2-((5-((2,6-dimethylpyrimidin-4-yl)amino)-2-methyl-3H-imidazo[4,5-b]-pyridin-7-yl)amino)phenyl)-N-methylmethanesulfonamide] | 100 to 500
28 | Cc1nc(-c2ccc(Nc3cc(NC(=O)C4CC4)nc4[nH]c(C)nc34)c(N(C)S(C)(=O)=O)c2)n(C)n1 [I-165, N-(7-((4-(1,3-dimethyl-1H-1,2,4-triazol-5-yl)-2-(N-methylmethylsulfonamido)phenyl)amino)-2-methyl-3H-imidazo[4,5-b]pyridin-5-yl)cyclopropanecarboxamide] | > 10000
29 | Cc1nc2c(Nc3ccc(C4COCCO4)cc3S(C)(=O)=O)cc(NC(=O)C3CC3)nc2[nH]1 (stereo not drawn) [I-604, N-(7-((4-(1,4-dioxan-2-yl)-2-(methylsulfonyl)phenyl)amino)-2-methyl-3H-imidazo[4,5-b]pyridin-5-yl)cyclopropanecarboxamide] | 100 to 500
30 | C[S@+]([O-])c1ccccc1Nc1cc(NC(=O)C2CC2)nc2[nH]c(C(F)F)nc12 [I-297, (S)—N-(2-(difluoromethyl)-7-((2-(methylsulfinyl)phenyl)amino)-3H-imidazo[4,5-b]pyridin-5-yl)cyclopropanecarboxamide] | 500 to 1000
31 | Cc1ccc(Nc2cc(Nc3ccc(Cl)cc3S(C)(=O)=O)c3nc(C(F)F)[nH]c3n2)nn1 [I-185, N7-(4-chloro-2-(methylsulfonyl)phenyl)-2-(difluoromethyl)-N5-(6-methylpyridazin-3-yl)-3H-imidazo[4,5-b]pyridine-5,7-diamine] | 100 to 500
32 | COc1c(Cl)cccc1Nc1cc(NC(=O)C2CC2)nc2[nH]c(C)nc12 [I-103, N-(7-((3-chloro-2-methoxyphenyl)amino)-2-methyl-3H-imidazo[4,5-b]pyridin-5-yl)cyclopropanecarboxamide] | > 10000
33 | Cc1nc(-c2ccc(Nc3cc(NC(=O)C4CC4)nc4[nH]c(C(F)F)nc34)c(S(C)(=O)=O)c2)cs1 [I-545, N-(2-(difluoromethyl)-7-((2-(methylsulfonyl)-4-(2-methylthiazol-4-yl)phenyl)amino)-3H-imidazo[4,5-b]pyridin-5-yl)cyclopropanecarboxamide] | 100 to 500
